We go through two compounds from patent publication US10584120B1, “Benzimidazole compounds and use thereof for treating Alzheimer's Disease or Huntington's Disease” (National Health Research Institutes, priority 2018, dated 2020).

Molecules are shown by their SMILES.

Usually bioavailability stands for dose-corrected exposure relative to a reference, in per cent. High values mean much systemic uptake, low ones little systemic uptake.

For data set [1], the system named is Aβ deposits in brain tissues of APP/PS1 mice. The data set can be described thus: In vivo activity in transgenic APP/PS1 mouse model. Particulars: 4-month-old APP/PS1 mice, orally administered for 3.5 months.
A short description of data set [2]: in vivo. Particulars: APP/PS1, mouse, po.

Regarding `O=C1NC(=O)N(c2ccc3[nH]cnc3c2)C1c1ccc(-c2nc(C(F)(F)F)cs2)cc1` (centres unmarked) [Compound 37, 1-(1H-benzimidazol-5-yl)-5-{4-[4-(trifluoromethyl)-1,3-thiazol-2-yl]phenyl}imidazolidine-2,4-dione], the “Aβ deposits in brain tissues” value in data set [1] is “depletion of Aβ deposits in brain tissues”.

`O=C1NCC(c2ccc(-c3csc(C(F)(F)F)c3)c(F)c2F)N1c1ccc2[nH]cnc2c1` (centres unmarked) [Compound 28, 1-(1H-benzimidazol-5-yl)-5-{2,3-difluoro-4-[5-(trifluoromethyl)thiophen-3-yl]phenyl}-imidazolidin-2-one] had a bioavailability in data set [2] of 25%.
